Measured values taken from patent US20090325931A1, “USE OF CDK INHIBITORS FOR THE TREATMENT OF GRANULOCYTE MEDIATED DISORDERS” (University Court of the University of Edinburgh, priority 2006, published 2009).

Legend:
human neutrophils [1] = assay: Human neutrophil apoptosis (annexin-V-FITC binding, confirmed by morphology); format: cell-based; conditions: for rate of apoptosis, time course study: after 8 h, NG75 10 μM, HD 10 μM; for rate of constitutive apoptosis: increasing concentrations, over 20 h; for rates of apoptosis assessed by annexin V binding: stereoisomers at 20 μM, after 6 h, mean±s.e.m., n=4 donors, control 12.4±0.4%
[2] = system: carrageenan-induced pleural inflammation; assay: Carrageenan-induced pleurisy; format: in vivo, C57BL/6J mice
human neutrophils [3] = assay: Reversal of dbcAMP, GMCSF and LPS mediated survival of neutrophils; format: cell-based; conditions: 30 min pre-incubation with survival factor, then 20 h
Experimental: At least 500 cells were counted per slide and the percentage apoptosis calculated. Apoptosis and loss of membrane integrity was also assessed by flow cytometry using human recombinant annexin-V-FITC (Roche, UK) to measure phosphatidylserine (PS) exposure, in combination with propidium iodide (Sigma). Stock annexin-V-FITC was diluted at 1:500 in annexin-V binding buffer (500 ml Hanks Balanced Salt Solution containing […]) and was added at a volume of 280 μl to 5×10^4 cells, and then incubated on ice for 10 min. 1 μl of PI (stock 1 mg/ml) was added to the samples shortly before analysis using the EPICS XL2 flow cytometer (Beckman Coulter, High Wycombe, UK). Where apoptosis data are presented as annexin-V binding, apoptosis was also confirmed by morphological assessment.
Since CDK inhibitors were able to accelerate apoptosis, the inventors investigated whether these compounds could also reverse the effects of agents known to delay apoptosis through different signaling pathways (Riley, N. A. et al. Anti-inflammatory & Anti-Allergy Agents in Medicinal Chemistry 5, 3-12 (2006)). […] Lipopolysaccharide (LPS) binds to Toll-like receptor (TLR)4, that interacts with CD14 eventually leading to mitogen-activation kinases (MAPK), PI3K and/or NF-κB signaling to inhibit apoptosis. […] Apoptosis was assessed by annexin-V-FITC, and checked by morphology.

Mcl-1 = Mcl-1 protein expression in neutrophils (western blot); format: cell-based, human
serum induced arthritis = assay: Passively-induced (K/BxN serum) arthritis; format: in vivo, C57BL/6J mice; conditions: 10 mg/kg i.p. on days 3-19 every second day
Experimental: Sera (100 μl) extracted from 60 day old arthritic K/B×N mice was injected intra-peritoneally into 6-8 week old female C57BL/6J mice (B&K, Hull, UK). Arthritis was scored by clinical examination. Briefly, a score of 1 was given for erythema alone or swelling of 1 digit. A score of 2 resulted from erythema plus swelling of the tarsal joints or swelling of the hock or wrist joint alone. A maximum score of 3 was achieved when swelling was present in both tarsal and hock joints, or both wrist and digits, or more than 2 digits and the tarsal joints. The score for each limb was added giving a maximum score of 12 and the mean score reflects the total score divided by the number of recipient mice per group.
Mice (n=10 in each group) were injected twice (days 0 and 3) with K/B×N serum derived from arthritic (day 60) K/B×N transgenic mice. Clinical scores were assessed on the days indicated.

tumor = conditions: cited from earlier work
caspase-3 = assay: Caspase-3 cleavage in neutrophils (western blot); conditions: 20 μM, 4 h
[4] = zVAD-fmk 1 μg/Kg i.p. at 4 h intervals
[5] = zVAD-fmk 1 μg/Kg i.p. at 4 h intervals, R-roscovitine 10 mg/Kg
[6] = 10 or 100 mg/Kg i.p., 36 h post-carrageenan

## COC(=O)C[C@H](NC(=O)[C@H](C)NC(=O)[C@@H](NC(=O)OCc1ccccc1)C(C)C)C(=O)CF (racemic) [zVAD-fmk, z-Val-Ala-DL-Asp-fluoromethylketone]
Human neutrophils [1]; zVAD-fmk 100 μM, R-roscovitine 20 μM, 6 h
  effect on R-roscovitine induced apoptosis: prevented R-roscovitine induced apoptosis
[2]; [4]
  edema formation compared with saline or vehicle controls: increasing
  total inflammatory cell number compared with saline or vehicle controls: increasing
[2]; [5]
  effect on R-roscovitine increase in inflammatory cell apoptosis and macrophages containing apoptotic bodies: inhibited dramatically
  effect on R-roscovitine-induced decrease in inflammatory cells and edema formation: prevented

## COc1ccc(CNc2nc(N[C@@H](CO)C(C)C)nc3c2ncn3C(C)C)cc1 [NG75, 2-(1R-isopropyl-2-hydroxyethylamino)-6-(4-methoxy-benzylamino)-9-isopropylpurine]
Human neutrophils [1]; 20 h treatment
  annexin-V/PI positive cell populations (secondary necrosis): increased number
Human neutrophils [1]; R-roscovitine 20 μM
  rate of apoptosis, time course study: increased the rate of apoptosis dramatically
Human neutrophils [1]; after 8 h of treatment
  annexin V positive cells: marked increase
Human neutrophils [1]
  rate of constitutive apoptosis: significantly increased

## CC[C@H](CO)Nc1nc(NCc2ccccc2)c2ncn(C(C)C)c2n1 [R-roscovitine, (R)-2-[{9-(1-methylethyl)-6-[(phenylmethyl)amino]-9H-purin-2-yl]amino}-1-butanol]
Human neutrophils [1]; R-roscovitine 20 μM
  rate of apoptosis, time course study: increased the rate of apoptosis dramatically
Human neutrophils [1]
  rate of constitutive apoptosis: significantly increased
  rates of apoptosis assessed by annexin V binding: 75.9±3.5%
Human neutrophils [3]
  effect on survival signals (dbcAMP, GMCSF, LPS delayed apoptosis): clearly is dominant over survival factor mediated effects
Mcl-1; R-roscovitine 20 μM plus GM-CSF 50 U/ml, 4 h
  effect on GM-CSF mediated up-regulation of Mcl-1: inhibits GM-CSF mediated up-regulation of Mcl-1
[2]; 10 mg/kg i.p. 24 h after carrageenan, 36 h post-carrageenan
  inhibition of total inflammatory cell number compared with vehicle control: greater than 50%
[2]; 10 mg/kg i.p., 36 h post-carrageenan
  number of monocytes/macrophages and neutrophils: reduction
[2]; 100 mg/Kg i.p., 36 h post-carrageenan
  lung inflammation (inflammatory infiltrate in lung sections): dramatically reduced
[2]; 100 mg/kg i.p. at 24 h, all time points examined
  pleural cavity total cell numbers over seven days: marked resolution of inflammation
[2]; 100 mg/kg i.p., 36 h post-carrageenan
  amount of inflammatory cells in pleural cavity: near baseline levels
[2]; [6]
  IFN-γ in the inflammatory exudate: diminished
  IL-6 in the inflammatory exudate: diminished
  MCP-1 in the inflammatory exudate: diminished
[2]; 36 h post-carrageenan
  edema formation (total exudate volume), decrease compared with saline control: three-fold
  inflammatory cell apoptosis and macrophages containing apoptotic bodies in the pleural cavity: increase
Serum induced arthritis
  arthritis as assessed by clinical scores: dramatically resolved quicker
tumor; even with high doses of 2 g/kg
  tolerability: well tolerated
tumor; systemic administration
  tumor size: specific reduction in tumor size
caspase-3
  caspase-3 cleavage: results in caspase-3 cleavage

## CC[C@@H](CO)Nc1nc(NCc2ccccc2)c2ncn(C(C)C)c2n1 [S-roscovitine]
Human neutrophils [1]
  rates of apoptosis assessed by annexin V binding: 75.6±3.3%

## GM-CSF: pro-survival factor (R & D Systems)
Mcl-1; GM-CSF 50 U/ml
  effect on fall of Mcl-1 levels in culture: prevented
